We go through 62 molecules from a melting point compilation (Tetko et al.; mined from patent text by program, amines drawn as free bases though some values may be those of a salt).

A value given as a limit tells only on which side of the number the result lay.

Usually melting point stands for the temperature of the solid-liquid transition.

`CCc1ccc(OCCCCCCN2CCN(c3nccs3)CC2)cc1` displayed a melting point of 21 to 23 °C. The result for `COC(=O)c1ccc(NC(=O)C=C(C)c2cc(C(C)C)c(C(C)C)o2)cc1` reads 167 to 169 °C; that for `O=C1NC(=O)C(Cc2ccc3c(c2)CCC(Cc2ccc(OCc4ccccc4)cc2)O3)S1` (configuration not stated), 118 to 120 °C; that for `Clc1ccc2nc(CN3CCC(c4ccccc4)CC3)cn2c1`, 132 to 133 °C. The result for `N#Cc1ccc(-c2nc(C(F)(F)F)c(C(=O)O)s2)cc1` reads 195 to 196 °C. The result for `O=C(Nc1ccc(N2CCOCC2)cc1)N(C[C@H]1CC[C@H](CN(C(=O)Nc2ccc(N3CCOCC3)cc2)C2CCCCC2)CC1)C1CCCCC1` reads 156 to 158 °C; that for `CCOC(=O)c1ccc(N(N)C(=O)OC(C)(C)C)cc1`, 74 °C; that for `OCc1cnc2sc3ccccc3n12`, 183 to 184 °C.

`CCc1[nH]n(C2CCCC2)c2nc(Cc3cccn3C)nc(=O)c1-2` displayed a melting point of 214 to 216 °C. The result for `Cc1ccc2c(c1)c(O)c(C(=O)NC1CCCCC1)c(=O)n2C` reads 218 °C.

As to `COc1cc2c(cc1Nc1ncc(Cl)c(Nc3ccccc3OCC#N)n1)CCN(CC(=O)N(C)C)CC2`, the melting point fell in the range of 77 to 93 °C. Then `COC(CCCNC(=O)CCCCC(=O)NCCCC(OC)OC)OC`, with 73 to 75 °C. The result for `CCCCC(=O)N(Cc1ccc(-c2ccccc2-c2nnnn2C(c2ccccc2)(c2ccccc2)c2ccccc2)cc1)C(C(=O)O)C(C)C` (configuration not stated) reads 170 °C; that for `CC(C)(C)OC(=O)CN1C(=O)C(N2C(=O)c3ccccc3C2=O)CCc2ccccc21` (configuration not stated), 194 to 197 °C; that for `O=C(O)C(O)(CSc1ccccc1)C(F)(F)F` (configuration not stated), 83 to 84 °C. `CC(=O)c1cc(OCc2ccccc2)cc(NC(=O)C(C)(C)Br)c1O` showed a melting point of 88 to 90 °C. The result for `CCCCCCCCC=CCCCCCCCC(N)=O` reads 68 °C; that for `CCc1ccc(-c2ccc3c(c2)C=C(C(=O)Nc2ccc(CN(C)C4CCOCC4)cc2)CCN3C)cc1CC`, 127 to 129 °C. Then `CC1CCCN1CCN1CCN(CCCN2CCCCC2)C1=C(C#N)C#N` (configuration not stated), with 84 to 86 °C; and `CC1(C)C(c2ccccc2)=Nc2ccc(C3=NNC(=O)CC3)cc21`, with 200 to 201 °C; and `CC(C)n1nc(-c2sc(C(=O)NC3CC3)nc2-c2ccccc2F)ccc1=O`, with 134 to 135 °C. The result for `COc1ccc(C2=NN(c3ccc(NS(=O)(=O)c4ccc(C)cc4)cc3)C(=O)[C@H]3CC=CC[C@@H]23)cc1OC` (relative stereo) reads 229 to 230 °C.

Molecule `O=C1CCCCCCCCCCC=CCCCCCCCCCCC1O` (configuration not stated) returned a melting point of 78 °C.

In turn, `COC(=O)C(C(=O)c1cn2c3c(cccc13)CCC2)c1cn(C(=O)OC(C)(C)C)c2ccccc12` (configuration not stated) showed a melting point of 86 to 91 °C. The result for `Cc1cc2c(-c3cccnc3Cl)nc(O)nc2s1` reads > 300 °C; that for `O=S(=O)(NC1CC1)c1ccc(Nc2nc(OCC3CCCCC3)c3nc[nH]c3n2)cc1`, 220 to 221 °C. Then `Cc1noc(NS(=O)(=O)c2ccccc2-c2cc3ccccc3[nH]2)c1C`, with 172 to 175 °C; and `COCCOc1ccc2cc3ccccc3cc2c1`, with 131 to 134 °C; and `CC(C)(C)OC(=O)N1CCC(c2ccc3nc(-c4ccc(C(F)(F)F)cc4)oc3c2)CC1`, with 174 to 179 °C. The result for `CC(=O)c1ccc(C(=O)N2Cc3ccnn3Cc3ccccc32)cc1` reads 201 to 210 °C.

For the molecule `CCCCNC(=O)Nc1sc2c(c1C#N)CCCC2`, the melting point is 170 to 171 °C.

In the case of `OCCc1ccccc1Nc1ncc2c(n1)-c1ccccc1[C@H](c1ccccc1F)C2`, the melting point fell in the range of 162 to 163 °C. The result for `O=S(=O)(c1ccc(Cl)c(CBr)c1Cl)N1CCCC1` reads 115 °C; that for `CCC(CC)Cn1cc(C(=O)C(=O)O)c2cc(-c3ccc(OC(F)(F)F)cc3)ccc21`, 98 to 99 °C. Take `O=C(O)c1cc(C(c2ccccc2)c2ccccc2)ccn1`: the melting point lay within 172 to 177 °C. The result for `COC(=O)c1ccc(COC2OC(CO)C(O)C(O)C2O)o1` (configuration not stated) reads 72 °C; that for `NC(=O)N(O)CC#Cc1cccc(Oc2ccccn2)c1`, 158 to 160 °C; that for `N#Cc1ccc(Oc2cccc(N)c2)cc1C#N`, 171 to 172 °C.

`CCCCCCCCCCCCCCCCC[C@@H]1OC[C@@H](COC(=O)CCCCCOS(=O)(=O)c2ccc(C)cc2)O1` (relative stereo): the melting point was 41.9 to 42.7 °C. Then `CCCCc1oc2ccc(C(=O)OC)cc2c1C(=O)c1ccc(OC)cc1`, with 75 to 78 °C.

In the case of `ClCCCC1(c2ccccc2)OCCO1`, the melting point was 54 to 55.5 °C. For the molecule `Nc1ccc(S(N)(=O)=O)c2c1CCCC2`, the melting point lay in the range of 216 to 219 °C. Then `C=C(C)Cc1c(C)c(NC=O)c(C)c(CC(=C)C)c1O`, with 169 to 170 °C; and `Cc1ccc2oc(=O)c(-c3ccccc3)c(OCCN3CCOCC3)c2c1`, with 96 °C; and `CC12CCC(=O)C=C1CCC1C2CCC2(C)C(n3ccnc3)=CCC12` (configuration not stated), with 147 to 150 °C.

`O=C(O)CCCCCCC1=CCCC1=O`: the melting point is 41 to 43 °C. The result for `CCOC(=O)C1=C(N)N=C(SCC)C(C(=O)OCC)C1c1ccncc1` (configuration not stated) reads 156 °C; that for `Cc1noc(C2C(=O)Nc3cc(Cl)ccc3C2=O)n1` (configuration not stated), > 320 °C; that for `C=CCCC(=O)Nc1ccccc1`, 93 to 94 °C.

Turning to `Cc1ccc(N2CCC(N)=N2)cc1`, the melting point lay in the range of 142 to 143 °C.

Take `CCOC(=O)c1[nH]c2c(c1OCC1CO1)CCCC2` (configuration not stated): the melting point was 102 to 104 °C. In turn, `CCC(C)c1ccc(-n2c(-c3ccc(OCCO)cc3)nc3ccccc3c2=O)cc1` (configuration not stated) had a melting point of 173 to 175 °C. The result for `CNC(=O)n1c(=O)n(CCCN2CCN(C(c3ccccc3)c3ccccc3)CC2)c2ccccc21` reads 153 °C; that for `COC(=O)c1nc(-c2ccccc2)c(-c2ccc(=O)n(C(C)C)n2)cc1C#N`, 136 to 138 °C. Then `CCc1cn(-c2nc(C)nc(NC)n2)c2ccccc12`, with 174 to 175 °C; and `O=C(O)c1ccc(-c2nc(-c3ccncc3)cs2)cc1`, with > 300 °C; and `CC(C)(C)OC(=O)Nc1ccnc(NC(=O)NCc2ccccn2)c1`, with 192 to 193 °C. The result for `COc1cccc2c1nc(C(F)F)n2-c1nc(N2CCOCC2)nc(N2CCN(S(=O)(=O)C(F)(F)F)CC2)n1` reads 272 to 273 °C. On to `Cc1onc(-c2ccc(C(F)(F)F)cc2)c1CO`, for which the melting point was in the range of 72 to 73 °C. Then `COC(=O)C1CC1c1ccc(O)cc1` (configuration not stated), with 69 to 71 °C; and `NS(=O)(=O)c1ccc(NN=C2C(=O)Nc3cc4c(cc32)OCO4)cc1`, with > 220 °C; and `Cc1nn(CC(O)c2ccc(OC(F)(F)F)cc2)c(=O)n1-c1ccc(N2CCN(c3ccc(O)cc3)CC2)cc1` (configuration not stated), with 231 °C.
